{"source": "paper PMC7576618", "about": "(British Journal of Clinical Pharmacology, 2020)", "key": {"[1]": {"experiment": "SAD study: plasma pharmacokinetics after single oral TS-134", "assay_type": "in vivo, human", "details": "for AUC0‐inf, mean (CV[%]) / Cmax, mean (CV[%]) / t1/2, mean (CV[%]) / tmax, median: plasma"}, "[2]": {"experiment": "MAD study: plasma pharmacokinetics after multiple oral dose titration of TS-134", "assay_type": "in vivo, human", "details": "for AUC0‐tau, mean (CV[%]) / Cmax, mean (CV[%]) / t1/2, mean (CV[%]) / tmax, median: plasma, MAD Day 14, fed"}, "[3]": {"details": "compared with monkeys; cited from earlier work"}, "[4]": {"details": "SAD Parts A and C, 5 mg fasted (n = 6)"}, "[5]": {"details": "SAD Parts A and C, 10 mg fasted (n = 4)"}, "[6]": {"details": "SAD Parts A and C, 10 mg fed (n = 3)"}, "[7]": {"details": "SAD Parts A and C, 20 mg fasted (n = 3)"}, "[8]": {"details": "SAD Parts A and C, 20 mg fed (n = 3)"}}, "note": "Marks after values point to notes of the source that are not given here.", "data": [{"smiles": "CC(C)[C@@H]1CC[C@@H](C)C[C@H]1OC(=O)O[C@@H](C)OC(=O)[C@H]1[C@@H]2C[C@H](F)[C@@](N)(C(=O)O)[C@@H]21", "note": "[MGS0274]", "values": [{"measurement": "reduction of plasma AUC in the fed group (food effect)", "setting": "[1]; SAD, 10 and 20 mg TS‐134", "value": "almost no food effect"}, {"measurement": "reduction of plasma Cmax in the fed group (food effect)", "setting": "[1]; SAD, 10 and 20 mg TS‐134", "value": "up to 45%"}, {"measurement": "plasma AUC of MGS0274 as share of the AUC of MGS0008", "setting": "[1]; molar ratio, single and multiple oral administration, all treatment groups", "value": "approximately 3%"}, {"measurement": "AUC0‐inf, mean (CV[%])", "setting": "[1]; SAD Part B, 10 mg fed (n = 6)", "value": "36.47 ^e (61.58) h•ng mL^−1"}, {"measurement": "Cmax, mean (CV[%])", "setting": "[1]; SAD Part B, 10 mg fed (n = 7)", "value": "13.00 (82.69) ng mL^−1"}, {"measurement": "t1/2, mean (CV[%])", "setting": "[1]; SAD Part B, 10 mg fed (n = 7)", "value": "1.377 ^e (26.45) h"}, {"measurement": "tmax, median", "setting": "[1]; SAD Part B, 10 mg fed (n = 7)", "value": 30, "unit": "min"}, {"measurement": "AUC0‐inf, mean (CV[%])", "setting": "[1]; [4]", "value": "23.94 ^c (30.64) h•ng mL^−1"}, {"measurement": "Cmax, mean (CV[%])", "setting": "[1]; [4]", "value": "13.43 (55.44) ng mL^−1"}, {"measurement": "t1/2, mean (CV[%])", "setting": "[1]; [4]", "value": "1.013 ^c (35.22) h"}, {"measurement": "tmax, median", "setting": "[1]; [4]", "value": 30, "unit": "min"}, {"measurement": "AUC0‐inf, mean (CV[%])", "setting": "[1]; [5]", "value": "29.33 (31.92) h•ng mL^−1"}, {"measurement": "Cmax, mean (CV[%])", "setting": "[1]; [5]", "value": "17.88 (40.87) ng mL^−1"}, {"measurement": "t1/2, mean (CV[%])", "setting": "[1]; [5]", "value": "0.8765 (17.66) h"}, {"measurement": "tmax, median", "setting": "[1]; [5]", "value": 60, "unit": "min"}, {"measurement": "AUC0‐inf, mean (CV[%])", "setting": "[1]; [6]", "value": "22.69 (8.60) h•ng mL^−1"}, {"measurement": "Cmax, mean (CV[%])", "setting": "[1]; [6]", "value": "8.137 (16.40) ng mL^−1"}, {"measurement": "t1/2, mean (CV[%])", "setting": "[1]; [6]", "value": "1.505 (7.14) h"}, {"measurement": "tmax, median", "setting": "[1]; [6]", "value": 15, "unit": "min"}, {"measurement": "AUC0‐inf, mean (CV[%])", "setting": "[1]; [7]", "value": "72.09 (50.40) h•ng mL^−1"}, {"measurement": "Cmax, mean (CV[%])", "setting": "[1]; [7]", "value": "49.07 (66.56) ng mL^−1"}, {"measurement": "t1/2, mean (CV[%])", "setting": "[1]; [7]", "value": "1.477 (14.30) h"}, {"measurement": "tmax, median", "setting": "[1]; [7]", "value": 15, "unit": "min"}, {"measurement": "AUC0‐inf, mean (CV[%])", "setting": "[1]; [8]", "value": "84.30 ^d (16.80) h•ng mL^−1"}, {"measurement": "Cmax, mean (CV[%])", "setting": "[1]; [8]", "value": "33.27 (45.09) ng mL^−1"}, {"measurement": "t1/2, mean (CV[%])", "setting": "[1]; [8]", "value": "1.669 ^d (7.05) h"}, {"measurement": "tmax, median", "setting": "[1]; [8]", "value": 30, "unit": "min"}, {"measurement": "dose proportionality of steady‐state plasma Cmax and AUC", "setting": "[2]; MAD, 5–80 mg", "value": "dose proportional increases"}, {"measurement": "AUC0‐tau, mean (CV[%])", "setting": "[2]; 5 mg (n = 8)", "value": "14.90 (37.92) h•ng mL^−1"}, {"measurement": "Cmax, mean (CV[%])", "setting": "[2]; 5 mg (n = 8)", "value": "6.090 (79.22) ng mL^−1"}, {"measurement": "t1/2, mean (CV[%])", "setting": "[2]; 5 mg (n = 8)", "value": "1.247 (40.98) h"}, {"measurement": "tmax, median", "setting": "[2]; 5 mg (n = 8)", "value": 60, "unit": "min"}, {"measurement": "AUC0‐tau, mean (CV[%])", "setting": "[2]; 10 mg (n = 8)", "value": "29.40 (23.81) h•ng mL^−1"}, {"measurement": "Cmax, mean (CV[%])", "setting": "[2]; 10 mg (n = 8)", "value": "13.91 (51.77) ng mL^−1"}, {"measurement": "t1/2, mean (CV[%])", "setting": "[2]; 10 mg (n = 8)", "value": "1.212 (35.09) h"}, {"measurement": "tmax, median", "setting": "[2]; 10 mg (n = 8)", "value": 30, "unit": "min"}, {"measurement": "AUC0‐tau, mean (CV[%])", "setting": "[2]; 20 mg (n = 8)", "value": "56.36 (48.86) h•ng mL^−1"}, {"measurement": "Cmax, mean (CV[%])", "setting": "[2]; 20 mg (n = 8)", "value": "26.92 (66.42) ng mL^−1"}, {"measurement": "t1/2, mean (CV[%])", "setting": "[2]; 20 mg (n = 8)", "value": "1.567 (39.16) h"}, {"measurement": "tmax, median", "setting": "[2]; 20 mg (n = 8)", "value": 30, "unit": "min"}, {"measurement": "AUC0‐tau, mean (CV[%])", "setting": "[2]; 40 mg (n = 8)", "value": "122.0 (29.47) h•ng mL^−1"}, {"measurement": "Cmax, mean (CV[%])", "setting": "[2]; 40 mg (n = 8)", "value": "40.38 (29.69) ng mL^−1"}, {"measurement": "t1/2, mean (CV[%])", "setting": "[2]; 40 mg (n = 8)", "value": "4.711 (52.68) h"}, {"measurement": "tmax, median", "setting": "[2]; 40 mg (n = 8)", "value": 60, "unit": "min"}, {"measurement": "AUC0‐tau, mean (CV[%])", "setting": "[2]; 60 mg (n = 8)", "value": "170.0 (23.85) h•ng mL^−1"}, {"measurement": "Cmax, mean (CV[%])", "setting": "[2]; 60 mg (n = 8)", "value": "95.14 (42.43) ng mL^−1"}, {"measurement": "t1/2, mean (CV[%])", "setting": "[2]; 60 mg (n = 8)", "value": "7.549 (93.72) h"}, {"measurement": "tmax, median", "setting": "[2]; 60 mg (n = 8)", "value": 60, "unit": "min"}, {"measurement": "AUC0‐tau, mean (CV[%])", "setting": "[2]; 80 mg Cohort 5 (n = 7)", "value": "142.0 (19.40) h•ng mL^−1"}, {"measurement": "Cmax, mean (CV[%])", "setting": "[2]; 80 mg Cohort 5 (n = 7)", "value": "85.27 (43.68) ng mL^−1"}, {"measurement": "t1/2, mean (CV[%])", "setting": "[2]; 80 mg Cohort 5 (n = 7)", "value": "10.52 (57.99) h"}, {"measurement": "tmax, median", "setting": "[2]; 80 mg Cohort 5 (n = 7)", "value": 60, "unit": "min"}, {"measurement": "AUC0‐tau, mean (CV[%])", "setting": "[2]; 80 mg Cohort 6 (n = 6)", "value": "203.9 (24.30) h•ng mL^−1"}, {"measurement": "Cmax, mean (CV[%])", "setting": "[2]; 80 mg Cohort 6 (n = 6)", "value": "98.55 (37.09) ng mL^−1"}, {"measurement": "t1/2, mean (CV[%])", "setting": "[2]; 80 mg Cohort 6 (n = 6)", "value": "6.810 (23.98) h"}, {"measurement": "tmax, median", "setting": "[2]; 80 mg Cohort 6 (n = 6)", "value": 30, "unit": "min"}, {"measurement": "hydrolytic activity against MGS0274 in the human liver S9 fraction", "setting": "[3]", "value": "comparable to that in monkeys"}]}]}
